One experiment addresses 5-HT4 receptors (Homo sapiens, UniProt Q13639). Description: GloSensor L9 assay for cAMP response. The experiment is classed as cell-based. To be noted: agonist/inverse agonist assay; Ag. = agonist; Inv. Ag. = Inverse agonist.
Experiment [1] has as its target human recombinant 5-HT4 receptors (h5-HT4) (Homo sapiens, UniProt Q13639). Description: NIMH-PDSP binding to human recombinant 5-HT4 receptors, [3H]GR 113808. To be noted: for h5-HT4 Ki: h5-HT4 receptors expressed in HEK293T cells, averages of triplicate measurements.
Another experiment deals with h5-HT1E (Homo sapiens, UniProt P28566). Briefly: NIMH-PDSP binding screen.
In a further experiment the target is BZP (rat brain site). Description: NIMH-PDSP binding screen. The following applies: read-out: Binding affinities (Ki) BZP (rat brain site).
A further experiment deals with hGABAA. Description: NIMH-PDSP binding screen. Set-up: species or system human. The following applies: read-out: Binding affinities (Ki) hGABAA.

Structures are written as SMILES. pKi: −log10 of the molar value. Entries after “also recorded” stand apart in the source; their conditions may differ.

human recombinant 5-HT4 receptors (h5-HT4), sequence (Q13639 whole entry): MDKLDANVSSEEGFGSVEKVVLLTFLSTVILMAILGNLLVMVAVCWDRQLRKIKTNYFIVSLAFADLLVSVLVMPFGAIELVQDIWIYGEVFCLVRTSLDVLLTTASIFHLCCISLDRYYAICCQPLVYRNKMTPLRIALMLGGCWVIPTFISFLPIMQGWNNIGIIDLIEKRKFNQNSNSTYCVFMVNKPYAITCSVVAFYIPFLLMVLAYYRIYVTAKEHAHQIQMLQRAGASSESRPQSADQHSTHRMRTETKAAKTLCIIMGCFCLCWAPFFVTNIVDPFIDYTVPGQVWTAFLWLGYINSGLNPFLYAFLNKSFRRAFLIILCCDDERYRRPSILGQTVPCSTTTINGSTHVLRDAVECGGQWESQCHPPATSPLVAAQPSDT
5-HT4 receptors, sequence (Q13639 whole entry): as above
h5-HT1E, sequence (P28566 whole entry): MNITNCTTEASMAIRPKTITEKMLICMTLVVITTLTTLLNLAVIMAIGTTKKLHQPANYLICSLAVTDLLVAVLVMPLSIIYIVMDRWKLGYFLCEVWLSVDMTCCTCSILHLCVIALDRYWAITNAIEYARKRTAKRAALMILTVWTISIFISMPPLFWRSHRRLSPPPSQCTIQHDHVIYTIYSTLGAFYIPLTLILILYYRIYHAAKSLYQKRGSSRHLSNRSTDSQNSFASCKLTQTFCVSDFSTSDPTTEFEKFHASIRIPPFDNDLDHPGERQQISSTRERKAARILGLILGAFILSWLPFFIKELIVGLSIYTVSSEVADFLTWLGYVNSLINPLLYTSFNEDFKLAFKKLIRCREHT

`CCCCN1CCC(COC(=O)c2cc(I)c(N)c3c2OCCO3)CC1` [Compound 1, (1-Butylpiperidin-4-yl)methyl 8-amino-7-iodo-2,3-dihydrobenzo[b][1,4]dioxine-5-carboxylate, reference compound]: the Efficacy entry at 5-HT4 receptors was “inverse agonists”.
Consider `CCCCN1CCC(COC(=O)c2ccc(N)c3c2OCCO3)CC1` [Compound 4, reference compound], for which the Efficacy entry on 5-HT4 receptors is “antagonists (inactive)”.
Take `CCCCN1CCC(COC(=O)c2cc(C)c(N)c3c2OCCO3)CC1` [Compound 7, (1-Butylpiperidin-4-yl)methyl 8-amino-7-methyl-2,3-dihydrobenzo[b][1,4]dioxine-5-carboxylate]: the Efficacy entry on 5-HT4 receptors was “inactive”.
The term pKi denotes −log10 of the Ki, conventionally taken in molar units. Take `CCCCN1CCC(COC(=O)c2cc(Cl)c(NC)c3c2OCCO3)CC1` [Compound 8, (1-Butylpiperidin-4-yl)methyl 7-chloro-8-(methylamino)-2,3-dihydrobenzo[b][1,4]dioxine-5-carboxylate]: the “h5-HT4 Ki” value in experiment [1] is on record as “low nanomolar; also recorded: binding affinity comparable to that of 1”. Also, the Efficacy entry at 5-HT4 receptors was “inverse agonists”. In addition, the pKi on h5-HT1E, on BZP (rat brain site) and at hGABAA was < 5.00 throughout.
Turning to `CCCCN1CCC(COC(=O)c2cc(Br)c(NC)c3c2OCCO3)CC1` [Compound 9, (1-Butylpiperidin-4-yl)methyl 7-bromo-8-(methylamino)-2,3-dihydrobenzo[b][1,4]dioxine-5-carboxylate], the “h5-HT4 Ki” value in experiment [1] is on record as “low nanomolar affinity”.
As to `CCCCN1CCC(COC(=O)c2ccc(N)cc2OC)CC1` [Compound 12, (1-Butylpiperidin-4-yl)methyl 4-amino-2-methoxybenzoate], the Efficacy entry on 5-HT4 receptors was “potent full agonist”.
Regarding `CCCCN1CCC(COC(=O)c2ccc(N)c(OC)c2)CC1` [Compound 13, (1-Butylpiperidin-4-yl)methyl 4-amino-3-methoxybenzoate], in experiment [1] (5-HT4 receptor selectivity), the “selectivity against the full range of tested receptors and binding sites” value was “greater than 60 fold”. For the same compound, the “h5-HT4 Ki” value in experiment [1] was “low nanomolar; also recorded: affinity comparable to that of 1”. Further, the Efficacy result on 5-HT4 receptors was “antagonists (inactive)”. Moreover, the pKi on BZP (rat brain site) and on hGABAA was < 5.00 each time.
For the compound `CCCCN1CCC(COC(=O)c2cc(F)c(N)c3c2OCCO3)CC1` [Compound 17, (1-Butylpiperidin-4-yl)methyl 8-amino-7-fluoro-2,3-dihydrobenzo[b][1,4]dioxine-5-carboxylate], the “h5-HT4 Ki” value in experiment [1] was “low nanomolar”. The Efficacy entry on 5-HT4 receptors is given as “inverse agonists”.

The values above are taken from publication PMC2951497 (Journal of medicinal chemistry, 2010).
